Results taken from patent US12351580B2, “NLRP3 modulators” (Innate Tumor Immunity, Inc., priority 2017, dated 2025).

Experiments:
[1] = molecular target: T1, TLR7 (Homo sapiens, UniProt Q9NYK1); experiment: In vitro human TLR7 binding reporter assay (HEK-Blue, NF-kB/AP1-inducible SEAP); type: cell-based; conditions: activity range symbols
T1 construct: host or cells: HEK-Blue cells (human HEK) co-expressing TLR7 and an NF-kB/AP1-inducible SEAP reporter
T1 sequence (Q9NYK1 27-1049): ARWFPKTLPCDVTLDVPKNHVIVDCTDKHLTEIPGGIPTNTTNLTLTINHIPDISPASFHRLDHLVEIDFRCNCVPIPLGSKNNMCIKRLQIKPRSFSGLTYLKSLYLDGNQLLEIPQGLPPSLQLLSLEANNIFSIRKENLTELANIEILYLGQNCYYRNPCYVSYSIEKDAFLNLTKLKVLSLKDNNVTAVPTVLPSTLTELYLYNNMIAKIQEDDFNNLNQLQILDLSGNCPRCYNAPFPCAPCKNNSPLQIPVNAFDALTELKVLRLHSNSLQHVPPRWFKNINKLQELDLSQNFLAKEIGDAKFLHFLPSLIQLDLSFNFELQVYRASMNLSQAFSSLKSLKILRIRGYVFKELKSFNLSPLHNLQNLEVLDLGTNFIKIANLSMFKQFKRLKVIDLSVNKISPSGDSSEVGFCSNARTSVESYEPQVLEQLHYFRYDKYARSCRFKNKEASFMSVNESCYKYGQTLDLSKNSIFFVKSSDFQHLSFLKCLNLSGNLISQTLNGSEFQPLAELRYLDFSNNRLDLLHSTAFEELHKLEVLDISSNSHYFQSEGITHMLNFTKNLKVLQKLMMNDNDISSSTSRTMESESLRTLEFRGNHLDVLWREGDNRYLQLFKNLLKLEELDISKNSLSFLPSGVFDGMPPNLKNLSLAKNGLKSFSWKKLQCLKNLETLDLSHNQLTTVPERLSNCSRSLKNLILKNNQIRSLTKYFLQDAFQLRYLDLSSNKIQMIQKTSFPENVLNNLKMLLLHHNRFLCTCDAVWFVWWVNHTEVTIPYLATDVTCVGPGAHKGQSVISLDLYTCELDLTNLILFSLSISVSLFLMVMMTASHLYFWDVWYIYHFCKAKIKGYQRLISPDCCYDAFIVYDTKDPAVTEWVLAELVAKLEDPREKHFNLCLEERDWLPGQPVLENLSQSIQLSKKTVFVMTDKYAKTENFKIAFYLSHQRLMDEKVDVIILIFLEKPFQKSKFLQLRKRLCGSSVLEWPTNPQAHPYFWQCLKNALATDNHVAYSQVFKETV
Procedure: (§1) In Vitro Human TLR7 and TLR8 Binding Reporter Assays
(§2) Logarithmically-growing human HEK-Blue cells co-expressing a TLR7 or TLR8 gene and a NF-kB/AP1-inducible SEAP (secreted embryonic alkaline phosphatase; Invivogen, San Diego, CA) reporter gene are added to individual wells of a 384-well plate (15,000 cells per 20 μL per well) and maintained for 24 h at 37° C., 5% CO2. Test compounds or DMSO are distributed to separate wells the next day using acoustic liquid handling technology (100 nL per well) and cells are subsequently incubated for 18 h at 37° C., 5% CO2. Cellular SEAP production is measured using an Envision plate reader instrument thirty minutes after adding freshly-made Quanti-Blue reagent (prepared by following manufacturer instructions; Invivogen, San Diego, CA) to the HEK-Blue TLR Nf-kB-SEAP cell reactions. All EC50 values (half-maximal effective concentration) are determined using proprietary data analysis software.

[2] = molecular target: T2, TLR8 (Homo sapiens, UniProt Q9NR97); experiment: In vitro human TLR8 binding reporter assay (HEK-Blue, NF-kB/AP1-inducible SEAP); type: cell-based; conditions: activity range symbols
T2 construct: host or cells: HEK-Blue cells (human HEK) co-expressing TLR8 and an NF-kB/AP1-inducible SEAP reporter
T2 sequence (Q9NR97 27-1041): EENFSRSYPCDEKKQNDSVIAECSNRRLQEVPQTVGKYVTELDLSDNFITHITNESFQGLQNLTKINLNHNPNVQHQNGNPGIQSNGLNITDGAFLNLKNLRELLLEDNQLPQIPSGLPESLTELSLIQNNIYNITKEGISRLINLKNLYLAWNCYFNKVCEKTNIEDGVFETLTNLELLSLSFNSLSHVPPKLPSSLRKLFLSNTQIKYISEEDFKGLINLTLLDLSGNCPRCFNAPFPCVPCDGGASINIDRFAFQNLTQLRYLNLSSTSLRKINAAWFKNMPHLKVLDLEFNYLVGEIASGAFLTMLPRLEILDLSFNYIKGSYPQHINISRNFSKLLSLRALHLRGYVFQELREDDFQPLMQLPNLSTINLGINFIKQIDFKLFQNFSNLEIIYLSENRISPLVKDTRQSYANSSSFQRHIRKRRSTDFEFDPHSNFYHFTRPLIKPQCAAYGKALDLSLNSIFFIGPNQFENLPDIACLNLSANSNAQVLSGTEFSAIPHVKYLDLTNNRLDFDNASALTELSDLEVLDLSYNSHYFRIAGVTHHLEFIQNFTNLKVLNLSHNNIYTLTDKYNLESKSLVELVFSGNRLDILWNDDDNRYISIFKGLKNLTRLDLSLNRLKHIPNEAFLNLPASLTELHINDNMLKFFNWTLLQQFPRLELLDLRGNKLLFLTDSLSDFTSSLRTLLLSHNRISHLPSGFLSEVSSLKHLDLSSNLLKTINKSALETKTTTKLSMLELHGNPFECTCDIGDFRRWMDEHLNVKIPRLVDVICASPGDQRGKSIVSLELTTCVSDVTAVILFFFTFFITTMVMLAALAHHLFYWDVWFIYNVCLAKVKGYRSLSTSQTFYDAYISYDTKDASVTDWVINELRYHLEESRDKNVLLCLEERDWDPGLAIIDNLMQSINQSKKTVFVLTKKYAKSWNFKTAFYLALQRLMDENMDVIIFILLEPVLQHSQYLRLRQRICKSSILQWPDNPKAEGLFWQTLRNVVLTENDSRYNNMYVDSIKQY
Procedure: as §1, §2

SMILES	EC50 [1] [µM]	EC50 [2] [µM]
CCOC(=O)c1cc2c(cc1Br)nc(N)c1nc(CN(CC)C(C)=O)[nH]c12 [Compound 198]	> 100	> 100
CCN(Cc1nc2c(N)nc3ccc(Br)cc3c2[nH]1)C(=O)OC [Compound 200]	> 100	> 100
CCN(Cc1nc2c(N)nc3ccc(Br)cc3c2[nH]1)S(=O)(=O)c1ccc(C)cc1 [Compound 202]	> 100	> 100
CCN(Cc1nc2c(N)nc3ccc(Br)cc3c2[nH]1)C(=O)C(C)C [Compound 203]	> 100	> 100
CCN(Cc1nc2c(N)nc3ccc(Br)cc3c2[nH]1)C(=O)c1ccccc1 [Compound 204]	> 100	> 100
CCN(Cc1nc2c(N)nc3ccccc3c2n1CCC(=O)N1CCN(C(=O)OC(C)(C)C)CC1)C(=O)OC(C)(C)C [Compound 211]	> 100	> 100
CCN(Cc1nc2c(N)nc3ccccc3c2n1CCC(=O)N1CCN(C(=O)OC(C)(C)C)CC1)C(C)=O [Compound 212]	> 100	> 100
CCN(Cc1nc2c(N)nc3cc(Br)ccc3c2n1CCCC(=O)N(C)C)C(C)=O [Compound 213]	> 100	> 100
CN(C)C(=O)CCCn1c(CN2CCCC2=O)nc2c(N)nc3cc(Br)ccc3c21 [Compound 215]	> 100	> 100
COC(=O)CCCn1c(CN2CCCC2=O)nc2c(N)nc3cc(Cl)ccc3c21 [Compound 216]	> 100	> 100
CCN(Cc1nc2c(N)nc3cc(Cl)ccc3c2n1CCCC(=O)NC)C(C)=O [Compound 217]	> 100	> 100
CCN(Cc1nc2c(N)nc3cc(Br)ccc3c2n1CCCC(=O)OC)C(C)=O [Compound 218]	> 100	> 100
CCN(Cc1nc2c(N)nc3cc(Cl)ccc3c2n1CCCC(=O)OC)C(C)=O [Compound 219]	> 100	> 100
CCN(Cc1nc2c(N)nc3cc(Cl)ccc3c2n1CCCC(=O)N1CCOCC1)C(C)=O [Compound 220]	> 100	> 100
CCN(Cc1nc2c(N)nc3cc(C(F)(F)F)ccc3c2n1CCCC(=O)NC)C(=O)OC(C)(C)C [Compound 226]	> 100	> 100
CCN(Cc1nc2c(N)nc3cc(C(F)(F)F)ccc3c2n1CCCC(=O)N1CCOCC1)C(=O)OC(C)(C)C [Compound 228]	> 100	> 100
CCN(Cc1nc2c(N)nc3cc(C(F)(F)F)ccc3c2n1CCCC(=O)OC)C(C)=O [Compound 229]	> 100	> 100
COc1ccc(-c2ccc3c(c2)nc(N)c2nc(CN4CCCC4=O)[nH]c23)cc1 [Compound 230]	> 100	> 100
CC(=O)NCc1nc2c(N)nc3ccccc3c2[nH]1 [Compound 233]	1 to 20	> 100
Nc1nc2ccccc2c2[nH]c(CN3CCCC3=O)nc12 [Compound 278]	20 to 100	> 100
COc1ccccc1-c1ccc2c(c1)nc(N)c1nc(CN3CCCC3=O)[nH]c12 [Compound 283, 1-[[4-amino-7-(2-methoxyphenyl)-1H-imidazo[4,5-c]quinolin-2-yl]methyl]pyrrolidin-2-one]	> 100	> 100
Nc1nc2cc(-c3ccccc3F)ccc2c2[nH]c(CN3CCCC3=O)nc12 [Compound 284, 1-[[4-amino-7-(2-fluorophenyl)-1H-imidazo[4,5-c]quinolin-2-yl]methyl]pyrrolidin-2-one]	> 100	> 100

Further lines, results first:

EC50 [1] [µM]	EC50 [2] [µM]	SMILES
> 100	> 100	CCN(Cc1nc2c(N)nc3ccc(Br)cc3c2[nH]1)S(C)(=O)=O [Compound 201]
> 100	> 100	CCN(Cc1nc2c(N)nc3ccccc3c2n1CCC(=O)N1CCOCC1)C(=O)OC(C)(C)C [Compound 205]
> 100	> 100	CCN(Cc1nc2c(N)nc3ccc(-n4cccn4)cc3c2[nH]1)C(C)=O [Compound 207]
> 100	> 100	CCN(Cc1nc2c(N)nc3cc(Br)ccc3c2n1CCCC(=O)N1CCN(C)CC1)C(C)=O [Compound 209]
> 100	> 100	CCN(Cc1nc2c(N)nc3cc(Br)ccc3c2n1CCCC(=O)NC)C(C)=O [Compound 210]
> 100	> 100	CCN(Cc1nc2c(N)nc3cc(Br)ccc3c2n1CCCC(=O)N1CCOCC1)C(C)=O [Compound 214]
> 100	> 100	CCN(Cc1nc2c(N)nc3cc(Cl)ccc3c2n1CCCC(=O)N1CCN(C)CC1)C(C)=O [Compound 221]
> 100	> 100	CCN(Cc1nc2c(N)nc3cc(Cl)ccc3c2n1CCCC(=O)N1CCCC1)C(C)=O [Compound 222]
20 to 100	> 100	CCN(Cc1nc2c(N)nc3ccccc3c2n1CCC(=O)N1CCS(=O)(=O)CC1)C(=O)OC(C)(C)C [Compound 223]
> 100	1 to 20	CCNCc1nc2c(N)nc3cc(Br)ccc3c2[nH]1 [Compound 225]
20 to 100	> 100	CCNCc1nc2c(N)nc3cc(C(F)(F)F)ccc3c2n1CCCC(=O)OC [Compound 227]
> 100	> 100	Nc1nc2cc(-c3cccnc3)ccc2c2[nH]c(CN3CCCC3=O)nc12 [Compound 279, 1-[(4-amino-7-pyridin-3-yl-1H-imidazo[4,5-c]quinolin-2-yl)methyl]pyrrolidin-2-one]
> 100	> 100	Nc1nc2cc(-c3ccccc3)ccc2c2[nH]c(CN3CCCC3=O)nc12 [Compound 280, 1-[(4-amino-7-phenyl-1H-imidazo[4,5-c]quinolin-2-yl)methyl]pyrrolidin-2-one]
> 100	> 100	Nc1nc2cc(-c3ccccc3Cl)ccc2c2[nH]c(CN3CCCC3=O)nc12 [Compound 281, 1-[[4-amino-7-(2-chlorophenyl)-1H-imidazo[4,5-c]quinolin-2-yl]methyl]pyrrolidin-2-one]
> 100	> 100	Cc1ccccc1-c1ccc2c(c1)nc(N)c1nc(CN3CCCC3=O)[nH]c12 [Compound 282, 1-[[4-amino-7-(2-methylphenyl)-1H-imidazo[4,5-c]quinolin-2-yl]methyl]pyrrolidin-2-one]
